For eleven molecules, EC50, Emax and Kd results are on record in paper PMC6412877 (Molecules, 2019).

Numbered stars: 1 amine (or outer) side, 2 acyl side, 3 side chain; on linkers, the order of the positions; unused ones are H or OH. Side chains are listed from the residue outwards. Ends that are not written are not given here. Peptide text beside a SMILES is read from it. * marks the point of attachment. C18 diacid = O=C(O)CCCCCCCCCCCCCCCCC(=O)*; γGlu = O=C(O)[C@H](CCC(=O)[*:2])N[*:1]; AEEA = NCCOCCOCC(=O)O

For one assay, the target named is Human GLP-1R (Homo sapiens, UniProt P43220). Nature of the assay: In vitro GLP-1R activation, human receptor. The format is cell-based. Conditions: mean ± SD.
For another assay, the target named is T1, Mouse GLP-1R (Mus musculus, UniProt O35659).
T1 sequence (O35659 22-463): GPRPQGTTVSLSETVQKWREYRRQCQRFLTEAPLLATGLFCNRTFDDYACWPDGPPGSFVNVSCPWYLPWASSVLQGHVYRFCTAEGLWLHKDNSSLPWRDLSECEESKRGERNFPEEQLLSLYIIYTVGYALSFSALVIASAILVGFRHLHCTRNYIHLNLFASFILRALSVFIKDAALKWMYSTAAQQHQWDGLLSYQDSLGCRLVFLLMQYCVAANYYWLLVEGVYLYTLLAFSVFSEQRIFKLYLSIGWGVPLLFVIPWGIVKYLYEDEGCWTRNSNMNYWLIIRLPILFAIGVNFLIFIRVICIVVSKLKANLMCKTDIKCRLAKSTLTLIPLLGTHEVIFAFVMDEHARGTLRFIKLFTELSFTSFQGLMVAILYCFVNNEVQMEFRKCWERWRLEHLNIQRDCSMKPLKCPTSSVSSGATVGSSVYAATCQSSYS
Nature of the assay: In vitro GLP-1R activation, mouse receptor. The assay is classed as cell-based. The conditions noted are these: mean ± SD.

A further assay concerns the target GLP-1R ECD (Homo sapiens, UniProt P43220). Description: SPR binding affinity for GLP-1R extracellular domain (Biacore 8K). The conditions noted are these: Table 1, peptides 01-12. The method, then:
Surface Plasmon Resonance (SPR) measurements were performed with Biacore 8K (GE Health, Boston, MA, USA) for evaluating the associating affinity peptides for GLP1R ECD. Experimental details were carried out according to the Biacore 8K user’s manual.
For orientation: In SPR one partner is held on a chip, and binding of the other changes the refractive index at the surface.

Sequence of Human GLP-1R (P43220 24-463): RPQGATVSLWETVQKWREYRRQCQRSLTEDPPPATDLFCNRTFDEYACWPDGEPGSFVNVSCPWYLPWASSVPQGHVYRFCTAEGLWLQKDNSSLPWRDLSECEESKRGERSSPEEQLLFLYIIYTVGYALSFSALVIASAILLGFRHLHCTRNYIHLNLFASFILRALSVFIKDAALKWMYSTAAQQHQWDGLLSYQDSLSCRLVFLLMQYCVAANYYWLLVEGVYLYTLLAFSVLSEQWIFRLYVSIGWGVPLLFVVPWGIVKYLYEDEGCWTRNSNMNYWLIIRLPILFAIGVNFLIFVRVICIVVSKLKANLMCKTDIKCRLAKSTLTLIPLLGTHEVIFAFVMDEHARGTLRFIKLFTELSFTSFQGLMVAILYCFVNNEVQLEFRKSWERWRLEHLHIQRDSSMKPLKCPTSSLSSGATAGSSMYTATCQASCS
Sequence of GLP-1R ECD (P43220 24-139 limits assumed): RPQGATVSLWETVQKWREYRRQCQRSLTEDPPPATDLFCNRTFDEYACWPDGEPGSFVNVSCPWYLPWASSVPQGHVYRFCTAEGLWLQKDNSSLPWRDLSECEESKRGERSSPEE

At Human GLP-1R, `CC(C)C[C@H](NC(=O)[C@H](CCCCN)NC(=O)[C@H](C)NC(=O)[C@H](CO)NC(=O)[C@@H]1CCCN1C(=O)[C@H](CO)NC(=O)[C@H](CO)NC(=O)[C@H](Cc1ccc(O)cc1)NC(=O)[C@H](Cc1ccccc1)NC(=O)[C@@H](N)Cc1ccccc1)C(=O)N[C@@H](CCC(=O)O)C(=O)N[C@H](C(=O)NCC(=O)NCC(=O)N1CCC[C@H]1C(=O)N[C@@H](CO)C(=O)N[C@@H](CO)C(=O)NCC(=O)N[C@@H](C)C(=O)N1CCC[C@H]1C(=O)N1CCC[C@H]1C(=O)N1CCC[C@H]1C(=O)N[C@@H](CO)C(N)=O)[C@@H](C)O` [PEP13] yielded an EC50 of 0.064 ± 0.022 nM and a maximal response (Emax) of 96 ± 4.1%. Moreover, on Mouse GLP-1R, a half-maximal response (EC50) required 0.051 ± 0.009 nM and the Emax was 110 ± 9.4%.

Molecule `CC[C@H](C)[C@H](NC(=O)[C@H](Cc1ccccc1)NC(=O)[C@@H](N)CCC(=O)O)C(=O)N[C@@H](C)C(=O)N[C@H](C(=O)N[C@@H](C)C(=O)N[C@@H](Cc1c[nH]c2ccccc12)C(=O)N[C@@H](CC(C)C)C(=O)N[C@H](C(=O)N[C@@H](CCCCN)C(=O)N[C@@H](CCC(N)=O)C(=O)N[C@H](C(=O)O)[C@@H](C)O)C(C)C)[C@@H](C)O` [PEP06] registered a Kd at GLP-1R ECD of 2590 nM.

`CC(C)C[C@H](NC(=O)[C@H](CCCCNC(=O)COCCOCCNC(=O)COCCOCCNC(=O)CC[C@H](NC(=O)CCCCCCCCCCCCCCCCC(=O)O)C(=O)O)NC(=O)[C@H](C)NC(=O)[C@H](CO)NC(=O)[C@@H]1CCCN1C(=O)[C@H](CO)NC(=O)[C@H](CO)NC(=O)[C@H](Cc1ccc(O)cc1)NC(=O)[C@H](Cc1ccccc1)NC(=O)[C@@H](N)Cc1ccccc1)C(=O)N[C@@H](CCC(=O)O)C(=O)N[C@H](C(=O)NCC(=O)NCC(=O)N1CCC[C@H]1C(=O)N[C@@H](CO)C(=O)N[C@@H](CO)C(=O)NCC(=O)N[C@@H](C)C(=O)N1CCC[C@H]1C(=O)N1CCC[C@H]1C(=O)N1CCC[C@H]1C(=O)N[C@@H](CO)C(=O)O)[C@@H](C)O` [PEP17] (H-FFYSSPSAK([AEEA-AEEA-γGlu-C18 diacid])LETGGPSSGAPPPS-OH; N-terminus and C-terminus assumed): the Emax on Human GLP-1R turned out to be 79 ± 6.4%; on Mouse GLP-1R it was 68 ± 5.9%.

Consider FFYSSPSAYLEKGGPSSGAPPPS [PEP16], for which the Emax was found to be 92 ± 7.1% at Human GLP-1R and 93 ± 9.3% at Mouse GLP-1R.

Take `C[C@H](NC(=O)[C@H](CO)NC(=O)[C@@H]1CCCN1C(=O)[C@H](CO)NC(=O)[C@H](CO)NC(=O)[C@H](Cc1ccc(O)cc1)NC(=O)[C@H](Cc1ccccc1)NC(=O)[C@@H](N)Cc1ccccc1)C(=O)N[C@@H](Cc1ccc(O)cc1)C(=O)N[C@@H](CCCCN)C(=O)N[C@@H](CCC(=O)O)C(=O)N[C@H](C(=O)NCC(=O)NCC(=O)N1CCC[C@H]1C(=O)N[C@@H](CO)C(=O)N[C@@H](CO)C(=O)NCC(=O)N[C@@H](C)C(=O)N1CCC[C@H]1C(=O)N1CCC[C@H]1C(=O)N1CCC[C@H]1C(=O)N[C@@H](CO)C(N)=O)[C@@H](C)O` [PEP14]: the Emax at Human GLP-1R is 105 ± 9.2%; on Mouse GLP-1R, 150 ± 10.9%.

KQYSSPTAWLVG [PEP03] showed a Kd at GLP-1R ECD of 1750 nM.

On GLP-1R ECD, `CC(C)C[C@H](NC(=O)[C@H](Cc1ccc(O)cc1)NC(=O)[C@H](C)NC(=O)[C@H](CO)NC(=O)[C@@H]1CCCN1C(=O)[C@H](CO)NC(=O)[C@H](CO)NC(=O)[C@H](Cc1ccc(O)cc1)NC(=O)[C@H](Cc1ccccc1)NC(=O)[C@@H](N)Cc1ccccc1)C(=O)N[C@@H](CCC(=O)O)C(=O)N[C@H](C(=O)O)[C@@H](C)O` [PEP01] registered a Kd of 740 nM.

Take FFYSSPSAYLKTGGPSSGAPPPS [PEP15]: the maximal response (Emax) at Human GLP-1R stood at 78 ± 9.1%; at Mouse GLP-1R, 73 ± 6.4%.

For `CC(C)C[C@H](NC(=O)[C@H](Cc1ccc(O)cc1)NC(=O)[C@H](C)NC(=O)[C@H](CO)NC(=O)[C@@H]1CCCN1C(=O)[C@H](CO)NC(=O)[C@H](CO)NC(=O)[C@H](Cc1ccc(O)cc1)NC(=O)[C@H](Cc1ccccc1)NC(=O)[C@@H](N)Cc1ccccc1)C(=O)N[C@@H](CCCCNC(=O)COCCOCCNC(=O)COCCOCCNC(=O)CC[C@H](NC(=O)CCCCCCCCCCCCCCCCC(=O)O)C(=O)O)C(=O)N[C@H](C(=O)NCC(=O)NCC(=O)N1CCC[C@H]1C(=O)N[C@@H](CO)C(=O)N[C@@H](CO)C(=O)NCC(=O)N[C@@H](C)C(=O)N1CCC[C@H]1C(=O)N1CCC[C@H]1C(=O)N1CCC[C@H]1C(=O)N[C@@H](CO)C(=O)O)[C@@H](C)O` [PEP19] (H-FFYSSPSAYLK([AEEA-AEEA-γGlu-C18 diacid])TGGPSSGAPPPS-OH; N-terminus and C-terminus assumed), the values for the Emax at Human GLP-1R and at Mouse GLP-1R were 89 ± 6.2% and 83 ± 3.2%, respectively.

In turn, `CC(C)C[C@H](NC(=O)[C@H](Cc1ccc(O)cc1)NC(=O)[C@H](CO)NC(=O)[C@H](CO)NC(=O)[C@@H](NC(=O)CNC(=O)[C@H](CCC(=O)O)NC(=O)[C@H](CO)NC(=O)[C@@H](NC(=O)[C@@H](N)Cc1ccccc1)[C@@H](C)O)[C@@H](C)O)C(=O)N[C@@H](CCC(=O)O)C(=O)N[C@H](C(=O)O)[C@@H](C)O` [PEP04] returned a Kd on GLP-1R ECD of 3990 nM.

As to `C[C@H](NC(=O)[C@H](CO)NC(=O)[C@@H]1CCCN1C(=O)[C@H](CO)NC(=O)[C@H](CO)NC(=O)[C@H](Cc1ccc(O)cc1)NC(=O)[C@H](Cc1ccccc1)NC(=O)[C@@H](N)Cc1ccccc1)C(=O)N[C@@H](Cc1ccc(O)cc1)C(=O)N[C@@H](CCCCNC(=O)COCCOCCNC(=O)COCCOCCNC(=O)CC[C@H](NC(=O)CCCCCCCCCCCCCCCCC(=O)O)C(=O)O)C(=O)N[C@@H](CCC(=O)O)C(=O)N[C@H](C(=O)NCC(=O)NCC(=O)N1CCC[C@H]1C(=O)N[C@@H](CO)C(=O)N[C@@H](CO)C(=O)NCC(=O)N[C@@H](C)C(=O)N1CCC[C@H]1C(=O)N1CCC[C@H]1C(=O)N1CCC[C@H]1C(=O)N[C@@H](CO)C(=O)O)[C@@H](C)O` [PEP18], the Emax at Human GLP-1R is 78 ± 6.4%; on Mouse GLP-1R, 78 ± 3.5%.

In general, EC50 refers to the concentration at which the effect is half-maximal. Read a low EC50 as a more potent agent. Usually Emax stands for the greatest response seen or fitted, relative to the assay's reference. In general, Kd refers to the concentration at which binding is half-saturated. A higher Kd goes with a looser complex.
